Experimental data taken from the supplement of paper PMC6045584.
± gives the standard deviation of the averaged measurements.

Experiments:
CRIZOTINIB = compound: C[C@@H](Oc1cc(-c2cnn(C3CCNCC3)c2)cnc1N)c1c(Cl)ccc(F)c1Cl [CRIZOTINIB]; test: surviving fraction relative to DMSO-only wells; higher = less growth inhibition; conditions: exposure time: 5 days
How it was run: (§1)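 For each tumour cell line, log-phase cells were put into 384-well plates at 250–500 cells per well, then after 24 hours exposed continuously for five days to inhibitors at 0.5, 1, 5, 10, 50, 100, 500 and 1000 nM. Viability was assessed by CellTiter-Glo luminescence, with surviving fraction expressed relative to the median of DMSO-only wells. Lines were screened three times and retained only if replicate Pearson r exceeded 0.7 and median Z' exceeded 0.3.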

DASATINIB = compound: Cc1nc(Nc2ncc(C(=O)Nc3c(C)cccc3Cl)s2)cc(N2CCN(CCO)CC2)n1 [DASATINIB]; test: as above; conditions: exposure time: 5 days
How it was run: as §1

Test System | surviving fraction (CRIZOTINIB; 0.5 nM) | surviving fraction (CRIZOTINIB; 1 nM) | surviving fraction (CRIZOTINIB; 5 nM) | surviving fraction (CRIZOTINIB; 10 nM) | surviving fraction (CRIZOTINIB; 50 nM) | surviving fraction (CRIZOTINIB; 100 nM) | surviving fraction (CRIZOTINIB; 500 nM) | surviving fraction (CRIZOTINIB; 1000 nM) | surviving fraction (DASATINIB; 0.5 nM) | surviving fraction (DASATINIB; 1 nM) | surviving fraction (DASATINIB; 5 nM) | surviving fraction (DASATINIB; 10 nM) | surviving fraction (DASATINIB; 50 nM) | surviving fraction (DASATINIB; 100 nM) | surviving fraction (DASATINIB; 500 nM) | surviving fraction (DASATINIB; 1000 nM)
G292 BONE | 1.02 ± 0.037 | 1.04 ± 0.055 | 1.07 ± 0.012 | 1.08 ± 0.038 | 0.9452 ± 0.0094 | 0.951 ± 0.033 | 0.634 ± 0.025 | 0.41 ± 0.016 | 0.94 ± 0.04 | 0.894 ± 0.036 | 0.811 ± 0.049 | 0.683 ± 0.032 | 0.348 ± 0.013 | 0.269 ± 0.033 | 0.213 ± 0.018 | 0.2077 ± 0.0011
HCC38 BREAST | 1.27 ± 0.15 | 1.18 ± 0.06 | 1.31 ± 0.069 | 1.28 ± 0.041 | 1.29 ± 0.13 | 1.28 ± 0.13 | – | 0.63 ± 0.09 | 0.962 ± 0.17 | 0.868 ± 0.087 | 0.697 ± 0.043 | 0.896 ± 0.17 | 1.01 ± 0.18 | 0.911 ± 0.16 | 0.664 ± 0.1 | 0.583 ± 0.12
HCC70 BREAST | 1.09 ± 0.06 | 1.1 ± 0.13 | 1.16 ± 0.022 | – | 1.18 ± 0.1 | – | 1.07 ± 0.059 | 0.818 ± 0.12 | 1.03 ± 0.094 | 1.04 ± 0.027 | 1.15 ± 0.1 | 0.996 ± 0.079 | 0.902 ± 0.15 | 0.655 ± 0.057 | 0.574 ± 0.14 | 0.581 ± 0.16
HMLE3 BREAST | 1.07 ± 0.043 | – | 1.18 ± 0.081 | 1.07 ± 0.089 | 1.05 ± 0.054 | 1.04 ± 0.12 | 0.828 ± 0.062 | 0.649 ± 0.046 | 0.898 ± 0.042 | 0.856 ± 0.067 | 0.856 ± 0.02 | 0.7 ± 0.013 | 0.776 ± 0.029 | 0.716 ± 0.043 | 0.588 ± 0.023 | 0.553 ± 0.033
HMT3552 BREAST | 1.01 ± 0.042 | 1.05 ± 0.073 | 1.04 ± 0.015 | 1.06 ± 0.015 | 1.07 ± 0.023 | 1.18 ± 0.035 | 0.597 ± 0.045 | 0.201 ± 0.012 | 0.913 ± 0.043 | 0.848 ± 0.067 | 0.705 ± 0.013 | 0.612 ± 0.063 | 0.259 ± 0.0081 | 0.15 ± 0.017 | 0.105 ± 0.0076 | 0.123 ± 0.021
HS57T BREAST | 1 ± 0.02 | 1.09 ± 0.056 | 1.14 ± 0.026 | 1.07 ± 0.025 | – | – | 0.676 ± 0.011 | 0.56 ± 0.046 | 0.852 ± 0.056 | 0.814 ± 0.024 | 0.832 ± 0.033 | 0.788 ± 0.076 | 0.423 ± 0.022 | 0.37 ± 0.029 | 0.17 ± 0.016 | 0.142 ± 0.0095
HS578T BREAST | 1.04 ± 0.16 | 1.13 ± 0.17 | 1.13 ± 0.11 | 1.14 ± 0.18 | 1.07 ± 0.25 | 0.994 ± 0.14 | 0.833 ± 0.066 | 0.722 ± 0.021 | 0.862 ± 0.13 | 0.829 ± 0.15 | 0.669 ± 0.051 | 0.593 ± 0.044 | 0.343 ± 0.029 | 0.252 ± 0.04 | 0.125 ± 0.02 | 0.126 ± 0.012
